Laboratory results published in US20190010461A1, “HUMAN PLURIPOTENT STEM CELL-BASED SCREENING FOR SMOOTH MUSCLE CELL DIFFERENTIATION AND DISEASE” (Wisconsin Alumni Research Foundation, priority 2017, published 2019).
Where a name gives a salt, the structure may show the parent alone.

System: MYH11-Tom+ cells
Test: Flow cytometric analysis of MYH11-Tom+ cells in SMC differentiation
Type: cell-based, human
Conditions: with RepSox 25 μM; DAPT 20 μM, DBZ 10 μM, RO04929097 10 μM; day 10-16
Procedure: Data are represented as mean±standard deviation (SD). […] Scale bar=1 mm. […] Scale bar=50 μm. […] Data are represented as mean±SD. Student's t-test, *: P<0.05, n=3.
FIGS. 7A-7G show the target of RepSox. […] Cells were treated with RepSox (25 μM) or SiRNA. […] Cells were treated with RepSox (25 μM) or SiRNA. […] During the smooth muscle cells differentiation, cells were treated with or without RepSox from day 10-11. […] During the smooth muscle cells differentiation, cells were treated with RepSox for 1 or 20 hours at day 12. […] Cells were treated with RepSox and non-targeting control (NT)/SiRNA at day 10. The RNA was isolated at day 14.
Optimized smooth muscle cell differentiation—Human pluripotent stem cell cells (H1) were cultured in E8 medium on a […]™-coated plate. To achieve the best differentiation results, ES cells were split using EDTA at 1:4 ratios two days before the differentiation. The cells reached 80-90% confluency two days later. At the day of the differentiation, ES cells were dissociated by ACCUTASE™ (Invitrogen) for 3-5 min at 37 ° C. The cells were plated on a […]™-coated plate at 1:4 ratios (1×10^5 cells/cm2). […] An increased CHIR99021 concentration of 3 μM decreased cell proliferation at 36 hours but increased MYH11 expression. At 36 hours, the cells were passaged and seeded on a new […]™-coated plate (1.6×10^4 cells/cm2). The low cell density is critical for the differentiation. A cell density of 1.0-4.0×10^4 cells/cm2 for different cell lines can be tested, such that 100% cell confluence will be achieved at day 6, which gives rise to the best differentiation efficiency. The cells were treated with E6T medium (E8 medium minus FGF2 but still containing 1.7 ng/ml TGF-β1) for 18 hours to induce the transient and medium level expression of MEOX1. E5F medium (E8 medium minus insulin and TGF-β1, but still containing 100 ng/ml FGF2) was used to suppress MEOX1 expression for another 5 days (days 3-8). Next, the cells were treated with E6FVR medium (E6 medium with 100 ng/ml FGF2, 50 ng/ml VEGFA, and 5 μM RESV, a NOTCH agonist) to induce SMC progenitors from day 8-12. E6R (E6 medium+5 μM RESV) medium supplemented with RepSox (25 μM), was then used to further mature SMCs from day 12 to 24. Cells were split (1×10^5 cells/cm2) at day 16 and further differentiated until day 24. The cells can be cryopreserved at day 16 or day 24. For P-SMCs, T-SMCs, and PT-SMCs, RepSox was replaced by PDGF-BB (10 ng/ml), TGF-β1 (1.7 ng/ml), or combination of PDGF-BB and TGF-β1, respectively, from day 12 to 24. From day 0-4: medium was changed every day. From day 2-24: medium was changed every other day. For day 1 and day 8-24, 1.5×volumes of medium, compared to the normal volume used in the well, were used. […]

Row | SMILES | effect on RepSox improvement of MYH11-Tom+ cell differentiation
1 | C[C@H](NC(=O)Cc1cc(F)cc(F)c1)C(=O)N[C@H](C(=O)OC(C)(C)C)c1ccccc1 [DAPT] | abolished
2 | C[C@H](NC(=O)Cc1cc(F)cc(F)c1)C(=O)N[C@@H]1C(=O)N(C)c2ccccc2-c2ccccc21 [DBZ] | abolished
3 | CC(C)(C(=O)NCC(F)(F)C(F)(F)F)C(=O)N[C@@H]1C(=O)Nc2ccccc2-c2ccccc21 [R04929097] | abolished

System: Human pluripotent stem cell cells (H1)
Test: Mesoderm differentiation of H1 cells in E8BAC medium
Type: cell-based
Conditions: CHIR99021 increased to 3 μM (from 1 μM)
Procedure: The cells reached 80-90% confluency two days later. At the day of the differentiation, ES cells were dissociated by […] (Invitrogen) for 3-5 min at 37 ° C. The cells were plated on a […]-coated plate at 1:4 ratios (1×10^5 cells/cm2). […] An increased CHIR99021 concentration of 3 μM decreased cell proliferation at 36 hours but increased MYH11 expression. At 36 hours, the cells were passaged and seeded on a new […]-coated plate (1.6×10^4 cells/cm2). The low cell density is critical for the differentiation. […] […] (E6 medium+5 μM RESV) medium supplemented with RepSox (25 μM), was then used to further mature SMCs from day 12 to 24. Cells were split (1×10^5 cells/cm2) at day 16 and further differentiated until day 24. The cells can be cryopreserved at day 16 or day 24. […] From day 0-4: medium was changed every day. From day 2-24: medium was changed every other day. For day 1 and day 8-24, 1.5×volumes of medium, compared to the normal volume used in the well, were used.

Row | SMILES | MYH11 expression | cell proliferation at 36 hours
4 | Cc1c[nH]c(-c2cnc(NCCNc3ccc(C#N)cn3)nc2-c2ccc(Cl)cc2Cl)n1 [CHIR99021] | increased | decreased

System: endothelium repair
Test: not given
Conditions: Prasad 2005; Zheng 2014; cited from earlier work

Row | SMILES | effect on endothelium repair
5 | CO[C@H]1C[C@@H]2CC[C@@H](C)[C@@](O)(O2)C(=O)C(=O)N2CCCC[C@H]2C(=O)O[C@H]([C@H](C)C[C@@H]2CC[C@@H](O)[C@H](OC)C2)CC(=O)[C@H](C)/C=C(\C)[C@@H](O)[C@@H](OC)C(=O)[C@H](C)C[C@H](C)/C=C/C=C/C=C/1C [rapamycin] | suppressed

System: MYH11 promoter-driven luciferase activity
Test: High-throughput screening, MYH11-Nluc-2A-Tom reporter human ES cell line, luciferase assay
Type: cell-based
Conditions: small molecules added day 4-14; selected when normalized reads > average+3×STDEV
Procedure: FIGS. 1A-1C depict a schematic of high-throughput screening. […] The cells were passaged at day 4 and seeded on the 96-well plate for screening (2×10^6 cells/plate). After the reporter cell line was differentiated into mesoderm, small molecules were added to the cells from day 4 to day 14. FIG. 1B depicts the results of the screening in two batches. The luciferase assay results of individual small molecules were normalized to the average reads of all samples for each batch. The small molecules were selected for further analysis when the normalized reads were greater than “average+3×STDEV”. FIG. 1C depicts optimizing the concentration of the selected small molecules.
The cells were treated with 50 ng/ml FGF2 and 20 ng/ml BMP4 for another two days. The cells were passaged at day 4 and seeded on the 96-well plate for screening (2×10^6 cells/plate). The compounds were added from day 4-14. The Luciferase substrate (1000× dilution) (Nano-Glo Luciferase Assay system, Promega) was added to the medium for 15 min and luminescence was measured. An increase in luminescence indicates increased MYH11 expression, which is an indicator of the contractile smooth muscle cell phenotype. The Thomson custom stem cell Modulator 1, GSK-kinase inhibitor library, SellekChem Kinase inhibitor library, Analyticon NATx library, Prestwick Chemical Library, GlaxoSmithKline Protein Kinase Inhibitors, and part of Enamine Representative Diversity library were used for screening.
High-throughput screening directs contractile smooth muscle cell differentiation—The construction of the MYH11-NLuc-tdTomato human ES cell reporter line generated by CRISPR/Cas9 technology is described in FIGS. 6A-6H. The reporter cell line was differentiated into mesoderm in E8BAC medium (Zhang et al., 2017) for two days and treated with FGF2 and BMP4 to further mature mesoderm for another two days. The cells were then passaged into a 96-well plate and exposed to small molecules for 10 days using a customized robotic workstation (FIG. 1A). The workstation was designed through collaboration with TECAN, which enables us to perform the automatic high-throughput screening at specific time point and in long-term. The medium were changed every other day and the small molecules were added during the feeding. […] We then validated these hits and optimized their concentration.

Row | SMILES | promotes MYH11+ SMC differentiation (increased MYH11 promoter-driven luciferase activity)
6 | CC#CCn1c(N2CCC[C@@H](N)C2)nc2c1c(=O)n(Cc1nc(C)c3ccccc3n1)c(=O)n2C [BI-1356] | promotes MYH11^+ SMC differentiation
7 | CNC(=O)c1cc(Oc2ccc(NC(=O)Nc3cc(C(C)(C)C)nn3-c3ccc4ncccc4c3)c(F)c2)ccn1 [DCC-2036, DCC-2036 (Rebastinib)] | promotes MYH11^+ SMC differentiation
8 | CN(C)C(=O)OC1CNC(C#Cc2cc3ncnc(Nc4ccc(OCc5cccc(F)c5)c(Cl)c4)c3s2)C1 (stereo not shown) [GSK182497A] | promotes MYH11^+ SMC differentiation
9 | COc1cc2ncnc(Nc3ccc4c(cnn4Cc4ccccc4)c3)c2cc1OC [GSK282449A] | promotes MYH11^+ SMC differentiation
10 | COC(=O)Nc1nc2ccc(Sc3ccc(NC(=O)Nc4cc(C(F)(F)F)ccc4F)cc3)cc2[nH]1 [GSK607049C] | promotes MYH11^+ SMC differentiation
11 | NC(=O)c1sc(-n2cnc3ccccc32)cc1OCc1ccccc1Br [GSK1023156A] | promotes MYH11^+ SMC differentiation
12 | O=C(Nc1ccc(OC(F)(F)F)cc1)c1sccc1NCc1ccnc2ccccc12 [OSI-930] | promotes MYH11^+ SMC differentiation
13 | O=C(O)C(Cc1c[nH]c2ccccc12)N1C(=O)c2ccccc2C1=O (stereo not shown) [RG108] | promotes MYH11^+ SMC differentiation
14 | CCO.N#CC(=C(/N)Sc1ccccc1N)/C(C#N)=C(\N)Sc1ccccc1N [UO126, U0126-EtOH] | promotes MYH11^+ SMC differentiation
15 | C[C@@H](N)[C@H]1CC[C@H](C(=O)Nc2ccncc2)CC1 [Y27632] | promotes MYH11^+ SMC differentiation
16 | CC(C(=O)O)c1ccc(-c2ccccc2)c(F)c1 (stereo not shown) [flurbiprofen, Flurbiprofen] | promotes MYH11^+ SMC differentiation
17 | NS(=O)(=O)c1cc2c(cc1C(F)(F)F)NCNS2(=O)=O [hydroflumethiazide, Hydroflumethiazide] | promotes MYH11^+ SMC differentiation
18 | Cc1ccc(NC(=O)c2ccc(CN3CCN(C)CC3)cc2)cc1Nc1nccc(-c2cccnc2)n1 [imatinib, Imatinib Mesylate] | promotes MYH11^+ SMC differentiation
19 | CC1=C(/C=C/C(C)=C/C=C/C(C)=C/C(=O)O)C(C)(C)CCC1 [retinoic acid, All-Trans Retinoic Acid] | promotes MYH11^+ SMC differentiation
20 | N[C@@H](CC(=O)N1CCn2c(nnc2C(F)(F)F)C1)Cc1cc(F)c(F)cc1F [sitagliptin, Sitagliptin] | promotes MYH11^+ SMC differentiation
21 | CNC(=O)c1cc(Oc2ccc(NC(=O)Nc3ccc(Cl)c(C(F)(F)F)c3)cc2)ccn1 [sorafenib, Sorafenib (Nexavar)] | promotes MYH11^+ SMC differentiation
22 | CC(=O)[N-]S(=O)(=O)c1ccc(N)cc1.O.[Na+] [sulfacetamide sodic hydrate, Sulfacetamide sodic hydrate] | promotes MYH11^+ SMC differentiation
23 | Nc1ccc(S(=O)(=O)Nc2ccnn2-c2ccccc2)cc1 [sulfaphenazole, Sulfaphenazole] | promotes MYH11^+ SMC differentiation
24 | N[C@@H]1C[C@H]1c1ccccc1 [tranylcypromine hydrochloride, Tranylcypromine hydrochloride] | promotes MYH11^+ SMC differentiation

System: intimal hyperplasia
Test: not given
Conditions: DeRose 1999; Gulkarov 2009; Sawada 2000; cited from earlier work

Row | SMILES | inhibition of intimal hyperplasia in previous studies
25 | CCO.N#CC(=C(/N)Sc1ccccc1N)/C(C#N)=C(\N)Sc1ccccc1N [UO126, U0126-EtOH] | inhibit intimal hyperplasia
26 | C[C@@H](N)[C@H]1CC[C@H](C(=O)Nc2ccncc2)CC1 [Y27632] | inhibit intimal hyperplasia
27 | CC1=C(/C=C/C(C)=C/C=C/C(C)=C/C(=O)O)C(C)(C)CCC1 [retinoic acid, All-Trans Retinoic Acid] | inhibit intimal hyperplasia
